The values below come from patent US7671057B2, “Therapeutic agent for type II diabetes comprising protease-inhibiting compound” (Ono Pharmaceutical Co., Ltd., priority 2004, dated 2010).

Marks after values point to notes of the source that are not given here.

Common to all, as to format: in vivo, mouse
The subject of data set [1] is KK-A^y/Ta Jcl mice. The experiment in a line: Plasma TC, TG, blood-sugar, IRI and IRG levels 3 hours subsequent to the glucose-loading test (Example 1). To be noted: 3 hours subsequent to glucose-loading test. On the procedure: (§1) As from Day 14 afterwards, the animals after being fasted for 18 hours or more were loaded orally with a glucose solution (2 g/kg, 10 mL/kg), whereby the blood-sugar levels were measured before, and 120 min. after, the said glucose loading. Each of the compounds was given orally to the animals 3 hours prior to the glucose loading, and the whole blood was drawn from each of the animals under anesthesia. Each of the said blood samples was centrifuged to yield a blood plasma, and the resultant blood plasmas were all preserved under freezing in a ultra-low-temperature freezer for subsequent use in the below-described measurements.
(§2) The blood-sugar level, total cholesterol level (hereinafter referred to briefly as “TC level”) and triglyceride level (hereinafter referred to briefly as “TG level”) were detected individually in accordance with the hexokinase/G-6-PDH method, enzyme method and GPO/HDAOS method, and measured with use of Biochemical Auto-Analyzer (Model AU 400, manufactured by Olympus Co. of Japan). The plasma insulin level (hereinafter referred to briefly as “IRI level”) and the plasma glucagon level (hereinafter referred to briefly as “IRG level”) were detected individually with the ELISA method (Lebisinsulin Mouse Insulin Kit, produced by K.K. Shibayagi of Japan) and the ELISA method (YK090 Glucagon EIA Kit, produced by K.K. Yanaihara Kenkyuu-sho of Japan), followed by measurement with use of a plate reader (Immuno Mini NJ-2300, Nalge Nunc International K.K. of Japan).
(§3) The blood-sugar, TC, TG, IRI and IRG levels and the body weight were expressed as a mean value±standard deviation as calculated for each group of animals. With reference to the significance test between the group treated through administration of the medium and each group treated through administration of the compound, the F test was effected to analyze the data and then, the Student's t-test and Aspin-Welch's t-test were used in cases where the variance between the two groups was determined to be equal and unequal, respectively. Referring to the significance level, less than 5% (p<0.05) was considered significant, and the significance level was expressed as divided into the two events of less than 1% (**: p<0.01) and less than 5% (*: p<0.05).

The nature of data set [2]: Body weight after repeated administration for 14 days (Example 1). Particulars: after repeated administration for 14 consecutive days. On the procedure:
Following the above-described single administration, the repeated, once-a-day forced oral administration of each compound was performed at the same daily dose for the total period of 14 consecutive days. […] The blood-sugar, TC, TG, IRI and IRG levels and the body weight were expressed as a mean value±standard deviation as calculated for each group of animals. With reference to the significance test between the group treated through administration of the medium and each group treated through administration of the compound, the F test was effected to analyze the data and then, the Student's t-test and Aspin-Welch's t-test were used in cases where the variance between the two groups was determined to be equal and unequal, respectively.

Data set [3] deals with KK-A^y/Ta Jcl mice. In words: Glucose loading test after repeated administration for 14 days (Example 1). On the procedure:
as §1, §2, §3

Data set [4] has as its system KK-A^y/Ta Jcl mice. The experiment in a line: Blood-sugar level after single and repeated oral administration (Example 1). On the procedure: On the day of initiation of administration (Day 1 of Administration), the obese/spontaneously type II diabetic mice; KK-A^y/Ta Jcl mice (male, 6-weeks aged, n=8) were treated through individual oral administration of the Test Compound 1 (ethyl N-allyl-N—[(E)-2-methyl-3-[4-(4-amidinophenoxycarbonyl)-phenyl]propenoyl]aminoacetate/methanesulfonate) of the present invention and the Control Compound 1 (5-{4-[2-(5-ethylpyridine-2-yl)ethoxy]benzyl}-1,3-thiazolidine-2,4-dione; pioglitazone) at the daily dose of 30 mg/kg, or the control medium (0.5% CMC), and blood was drawn from each animal through the orbital venous plexus 6 hours after administration. The blood-sugar levels were measured in accordance with the enzyme electrode method by use of Antosense II (manufactured by Daikin Kogyo KK of Japan). The said test was carried out while the animals were allowed free access to food and water.
Following the above-described single administration, the repeated, once-a-day forced oral administration of each compound was performed at the same daily dose for the total period of 14 consecutive days. On Days 3 and 11, blood was drawn in the same manner as described above 6 hours after administration of each compound, followed by measurement of the blood-sugar level.
as §3

[5] abbreviates: repeated once-a-day oral 30 mg/kg, 6 hours after administration.

As to `C=CCN(CC(=O)OCC)C(=O)/C(C)=C/c1ccc(C(=O)Oc2ccc(C(=N)N)cc2)cc1` [Test Compound 1, ethyl N-allyl-N—[(E)-2-methyl-3-[4-(4-amidinophenoxycarbonyl)-phenyl]propenoyl]aminoacetate/methanesulfonate], in the data set with KK-A^y/Ta Jcl mice [1] (after 14 days), the “Effect on IRG level (in words)” value was “a decrease in the IRG level”, the “Effect on IRI level (in words)” value is “an increase in the IRI level”, the “Effect on TC level (in words)” value is “decreases” and the “Effect on TG level (in words)” value was “decreases”. Further, the “Effect on blood-sugar level (in words)” value in the data set on KK-A^y/Ta Jcl mice [1] (after 14 days) is listed as “a decrease in the blood-sugar level”. For the same compound, in the data set on KK-A^y/Ta Jcl mice [1] (after 14 days 30 mg/kg p.o.), the Blood-sugar level turned out to be 251.0 ± 7.2 mg/dL, the IRG (plasma glucagon level) amounted to 411 ± 31.5 pg/mL, the “IRI (plasma insulin level)” value is reported as 1.74 ± 0.17 ng/mL and the TC worked out at 99.2 ± 3.6 mg/dL. In addition, in the data set on KK-A^y/Ta Jcl mice [1] (after 14 days 30 mg/kg p.o.), the TG came to 81.4 ± 7.1 mg/dL. Also, in data set [2], the “Effect on mouse body-weight vs control medium group (in words)” value was “did not show any changes in the mouse body-weight”. This compound also returned a Body weight in data set [2] (30 mg/kg p.o.) of 29.3 ± 0.3 g. In addition, the “Blood-sugar level before glucose loading” value in the data set with KK-A^y/Ta Jcl mice [3] (after 14 days 30 mg/kg p.o., fasted, compound 3 hours prior to loading) was found to be 155.0 ± 5.2 mg/dL. Further, the “Blood-sugar level 120 Min. after glucose loading” value in the data set with KK-A^y/Ta Jcl mice [3] (after 14 days 30 mg/kg p.o., glucose 2 g/kg orally) is recorded as 235.0 ± 5.9* mg/dL. Further, the “Blood-sugar lowering action in the glucose loading test vs medium control group (in words)” value with KK-A^y/Ta Jcl mice [3] (after repeated administration for 14 consecutive days) is listed as “significant blood-sugar lowering action”. The “Effect on impaired glucose tolerance (in words)” value in the data set on KK-A^y/Ta Jcl mice [3] (repeated forced oral administration, spontaneously diabetic mice) is given as “ameliorated impaired glucose tolerance”. Also, the “Blood-sugar level before administration” value with KK-A^y/Ta Jcl mice [4] (Day 1, before single oral administration of 30 mg/kg (baseline)) came to 443.5 ± 19.6 mg/dL. Also, in the data set with KK-A^y/Ta Jcl mice [4] (repeated administration 30 mg/kg, Days 3 and 11), the “Blood-sugar lowering action (in words)” value is on record as “blood-sugar lowering action”. In addition, in the data set with KK-A^y/Ta Jcl mice [4] (setting [5]), the “Blood-sugar level Day 3” value is 205.5 ± 7.0* mg/dL and the “Blood-sugar level Day 11” value is 297.4 ± 18.4 mg/dL. For the same compound, the “Blood-sugar lowering action vs control medium group (in words)” value in the data set on KK-A^y/Ta Jcl mice [4] (single administration 30 mg/kg, 6 hours after administration) was “significant blood-sugar lowering action”. In addition, the “Blood-sugar level 6 hrs. after administration” value in the data set on KK-A^y/Ta Jcl mice [4] (single oral administration, 30 mg/kg) was 263.5 ± 11.0* mg/dL.
